Assay results reported in patent publication US12038430B2, “Methods for high-content drug screening” (The Regents of the University of California, priority 2018, dated 2024).

Tested on: human wildtype CFTR
Assay: Iodide transport / YFP quenching CFTR activation assay in FRT cells on micropillar array
Type: cell-based
Conditions: 10 μM forskolin in alginate hydrogel, 10 min contact, FRT cells expressing human CFTR and YFP, versus neighboring area without forskolin
Protocol: FRT cells stably expressing human wildtype CFTR and yellow fluorescent protein YFP-H148/I152L were cultured on polyester transwell filters until they formed a tight monolayer (electrical resistance >3 kOhm·cm^2), as previously described in the art. The cell culture medium was then replaced with a viscous solution consisting of 2% methylcellulose (about 41,000 daltons, Sigma-Aldrich) in PBS. The cell layer was contacted with a 10×10 micropillar array for 10 min, and then the viscous solution was rinsed. For transport measurement, an iodide-containing solution (PBS with 120 mM chloride was replaced by iodide) was added manually on top of the cell layer. YFP fluorescence of the entire cell culture area was monitored for 5 min at 10 Hz using a 2× magnification lens (CFI Plan Apo Lambda 2X, Nikon, Melville, NY) with EMCCD camera detector (C9100, Hamamatsu). YFP fluorescence is reduced as the added extracellular iodide is transported into cell cytoplasm through activated CFTR. The time course of fluorescence for each of the 100 locations, each integrated over the 100-μm diameter circular cell area overlying the corresponding micropillar well, was determined using ImageJ. […]
CFTR function was determined from the kinetics of YFP fluorescence quenching following addition of an iodide-containing solution on the apical surface of the cell monolayer. […]

## C=C[C@@]1(C)CC(=O)[C@]2(O)[C@@]3(C)[C@@H](O)CCC(C)(C)[C@@H]3[C@H](O)[C@H](OC(C)=O)[C@@]2(C)O1 [Forskolin, forskolin]
  increase of initial curve slope of YFP fluorescence quenching (CFTR activation): more than 14 fold
